Patent US11608335B2, “Somatostatin modulators and uses thereof” (CRINETICS PHARMACEUTICALS, INC., priority 2018, dated 2023)

Target: human somatostatin receptor subtype 5 (Homo sapiens, UniProt P35346)
Assay: cAMP assay for SST5R (inhibition of cAMP via human SST5 receptor)

human somatostatin receptor subtype 5, sequence (P35346 whole entry): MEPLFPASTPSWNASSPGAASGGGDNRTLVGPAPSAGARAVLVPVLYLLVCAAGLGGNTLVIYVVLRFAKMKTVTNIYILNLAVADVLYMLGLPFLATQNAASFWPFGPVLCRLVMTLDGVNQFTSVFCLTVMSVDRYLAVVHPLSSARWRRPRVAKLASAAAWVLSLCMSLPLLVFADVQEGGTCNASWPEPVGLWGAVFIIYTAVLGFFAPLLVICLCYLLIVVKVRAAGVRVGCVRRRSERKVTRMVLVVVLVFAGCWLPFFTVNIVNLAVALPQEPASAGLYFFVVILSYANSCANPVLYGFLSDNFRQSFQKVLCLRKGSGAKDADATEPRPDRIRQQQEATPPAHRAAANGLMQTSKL

Structure (SMILES)	EC50 [nM]
Cc1cccc2[nH]c(-c3cncc(-c4cc(F)cc(C#N)c4)c3N3CC[C@H](N)C3)cc12 [Compound 2-129, 3-{4-[(3S)-3-aminopyrrolidin-1-yl]-5-(4-methyl-1H-indol-2-yl)pyridin-3-yl}-5-fluorobenzonitrile]	10 to 100
CCCn1c(-c2cncc(-c3cc(F)cc(C#N)c3)c2N2CC[C@H](N)C2)nc2ccccc21 [Compound 2-111, 3-{4-[(3S)-3-aminopyrrolidin-1-yl]-5-(1-propyl-1H-1,3-benzodiazol-2-yl)pyridin-3-yl}-5-fluorobenzonitrile]	10 to 100
Cc1cc(F)cc(-c2cncc(-c3nc4cc(F)cc(F)c4[nH]3)c2N2CC(O)(CN)C2)c1 [Compound 1-26, 3-(aminomethyl)-1-[3-(4,6-difluoro-1H-1,3-benzodiazol-2-yl)-5-(3-fluoro-5-methylphenyl)pyridin-4-yl]azetidin-3-ol]	100 to 1000
Cc1cc(F)cc(-c2cncc(-c3nc4cc(C#N)ccc4[nH]3)c2N2CC(CN)C2)c1 [Compound 1-8, 2-{4-[3-(aminomethyl)azetidin-1-yl]-5-(3-fluoro-5-methylphenyl)pyridin-3-yl}-1H-1,3-benzodiazole-5-carbonitrile]	100 to 1000
NCC1CN(c2c(-c3cc(F)cc(F)c3)cncc2-c2nc3cc(F)cc(F)c3[nH]2)C1 [Compound 1-21, 1-{1-[3-(4,6-difluoro-1H-1,3-benzodiazol-2-yl)-5-(3,5-difluorophenyl)pyridin-4-yl]azetidin-3-yl}methanamine]	< 10
Cc1ccc(F)c(-c2cncc(-c3nc4cc(F)cc(F)c4[nH]3)c2N2CC(CN)C2)c1 [Compound 1-45, 1-{1-[3-(4,6-difluoro-1H-1,3-benzodiazol-2-yl)-5-(2-fluoro-5-methylphenyl)pyridin-4-yl]azetidin-3-yl}methanamine]	10 to 100
N[C@H]1CCN(c2c(-c3ccc4c(c3)OCC4)cncc2-c2nc3cccc(F)c3[nH]2)C1 [Compound 2-59, (3S)-1-[3-(2,3-dihydro-1-benzofuran-6-yl)-5-(4-fluoro-1H-1,3-benzodiazol-2-yl)pyridin-4-yl]pyrrolidin-3-amine]	10 to 100
CON=Cc1cc(F)cc(-c2cncc(-c3nc4c(F)cccc4[nH]3)c2N2CC[C@H](N)C2)c1 [Compound 2-9, (3S)-1-[3-(4-fluoro-1H-1,3-benzodiazol-2-yl)-5-{3-fluoro-5-[(methoxyimino)methyl]phenyl}pyridin-4-yl]pyrrolidin-3-amine]	10 to 100
Cc1cc(Cl)cc(-c2cncc(-c3nc4cc(F)cc(F)c4[nH]3)c2N2CC(CN)C2)c1 [Compound 1-20, 1-{1-[3-(3-chloro-5-methylphenyl)-5-(4,6-difluoro-1H-1,3-benzodiazol-2-yl)pyridin-4-yl]azetidin-3-yl}methanamine]	< 10
NC(=O)c1cc(-c2cncc(-c3nc4cccc(F)c4[nH]3)c2N2CC[C@H](N)C2)ccc1F [Compound 2-71, 5-{4-[(3S)-3-aminopyrrolidin-1-yl]-5-(4-fluoro-1H-1,3-benzodiazol-2-yl)pyridin-3-yl}-2-fluorobenzamide]	10 to 100
Cc1cc(F)cc(-c2cncc(-c3nc4c(F)cc(F)cc4[nH]3)c2N2CC(C)(CN)C2)c1 [Compound 1-50, 1-{1-[3-(4,6-difluoro-1H-1,3-benzodiazol-2-yl)-5-(3-fluoro-5-methylphenyl)pyridin-4-yl]-3-methylazetidin-3-yl}methanamine]	< 10
N#Cc1cccc(-c2cncc(-c3nc4c(F)cccc4[nH]3)c2N2C[C@@H](N)[C@H](O)C2)c1 (racemic) [Compound 2-81, 3-{4-[trans-3-amino-4-hydroxypyrrolidin-1-yl]-5-(4-fluoro-1H-1,3-benzodiazol-2-yl)pyridin-3-yl}benzonitrile]	10 to 100
Cc1ccnc2nc(-c3cncc(-c4ccc(F)c(C#N)c4)c3N3CC[C@H](N)C3)[nH]c12 [Compound 2-50, 5-{4-[(3S)-3-aminopyrrolidin-1-yl]-5-{7-methyl-1H-imidazo[4,5-b]pyridin-2-yl}pyridin-3-yl}-2-fluorobenzonitrile]	10 to 100
